From publication PMC5426667, “Action of tyrosinase on alpha and beta-arbutin: A kinetic study” (PLoS ONE, 2017)

Legend:
[1] = deprotonated form is the nucleophile; no reference given; cited from earlier work
[2] = biological target: T1, Mushroom tyrosinase (Agaricus bisporus, UniProt C7FF04); assay: Apparent inhibition of the monophenolase activity of tyrosinase (L-tyrosine as substrate, dopachrome at 475 nm); assay type: biochemical; conditions: Lineweaver-Burk, 3 mM arbutin
Protocol: (§1) Mushroom tyrosinase (3130 U/mg) was obtained from Sigma (Madrid, Spain) and purified as previously described. Bradford’s method was used to determine the protein content using bovine serum albumin as standard.
(§2) Spectrophotometric assays were carried out with a PerkinElmer Lambda-35 spectrophotometer, online interfaced with a compatible PC 486DX microcomputer controlled by UV-Winlab software, where the kinetic data were recorded, stored, and analyzed.
The diphenolase activity of tyrosinase on L-dopa and the monophenolase activity on L-tyrosine were measured at 475 nm, the maximum absorption wavelength of dopachrome. To measure the activity of tyrosinase on L-tyrosine, the quantity of o-diphenol necessary to reach the steady state at time t = 0 was added. In this way, the characteristic lag period of the monophenolase activity, which complicates the measurement of the V0, was eliminated. This quantity is given by the equation R = [D]ss / [M]ss, where [D]ss and [M]ss are the concentrations of o-diphenol and monophenol respectively in the steady state with [M]ss ≈ [M]0. All the assays were carried out with R = 0.042. […]
The degrees of inhibition (i) were calculated using tyrosinase, L-dopa, L-tyrosine and the following formula: i (%) = [(V0-Vi)/V0] x 100, where V0 is the initial rate of the control and Vi the initial rate in the presence of the target molecule. […]

[3] = biological target: T1, Mushroom tyrosinase; assay: Kinetic characterization of arbutins as substrates of tyrosinase in the presence of MBTH; assay type: biochemical; conditions: [E]0 = 100 nM, [MBTH]0 = 0.2 mM, DMF 2%, pH 7.0, 25°C; for Km: read-out: KM (Michaelis constant) as substrate of tyrosinase
Protocol: This adduct is oxidized by another molecule of o-quinone, leading to the accumulation of o-diphenol in the medium, so, the system reach the steady state. This assay method is highly sensitive, reliable, and precise. […] The sequence of reactions is described in S1B Fig. All of the assays were carried out at 25°C, using 30 mM phosphate buffer at pH 7.0. Three repetitions of each experiment were made. Initial rate values (V0) were calculated at different substrate concentrations. The assays were carried out in saturating conditions of O2 [47-49]. The data for V0 vs. [arbutin]0 were represented and fitted to the Michaelis-Menten equation using the Sigma Plot 9.0 program for Windows, providing the maximum rate (Vmax) and the Michaelis constant (KM). […] These compounds were solubilised by adding 2% (v/v) DMF to the reaction medium. […] KM and kcat values were obtained fitting by non-linear regression (Table 2) the initial rate values vs. the concentration of substrate to the Eq 1 (Fig 7 and 7 Inset).

[4] = biological target: T1, Mushroom tyrosinase; assay: Apparent inhibition of the diphenolase activity of tyrosinase (L-dopa as substrate, dopachrome at 475 nm); assay type: biochemical; parameters: purchased Sigma (Madrid, Spain); conditions: for type of inhibition of the diphenolase activity: Lineweaver-Burk, 3 mM arbutin; for degree of inhibition of the diphenolase activity (maximum reached): [E]0 = 30 nM, [L-dopa]0 = 0.5 mM, arbutin up to 30 mM
Protocol: as §1, §2
The diphenolase activity of tyrosinase on L-dopa and the monophenolase activity on L-tyrosine were measured at 475 nm, the maximum absorption wavelength of dopachrome. To measure the activity of tyrosinase on L-tyrosine, the quantity of o-diphenol necessary to reach the steady state at time t = 0 was added. In this way, the characteristic lag period of the monophenolase activity, which complicates the measurement of the V0, was eliminated. This quantity is given by the equation R = [D]ss / [M]ss, where [D]ss and [M]ss are the concentrations of o-diphenol and monophenol respectively in the steady state with [M]ss ≈ [M]0. All the assays were carried out with R = 0.042.
All of the assays were carried out at 25°C, using 30 mM phosphate buffer at pH 7.0. Three repetitions of each experiment were made.
The degrees of inhibition (i) were calculated using tyrosinase, L-dopa, L-tyrosine and the following formula: i (%) = [(V0-Vi)/V0] x 100, where V0 is the initial rate of the control and Vi the initial rate in the presence of the target molecule. The initial rates were obtained by linear regression fitting of the initial portions of each experimental recording.

T1 sequence (C7FF04 1-392): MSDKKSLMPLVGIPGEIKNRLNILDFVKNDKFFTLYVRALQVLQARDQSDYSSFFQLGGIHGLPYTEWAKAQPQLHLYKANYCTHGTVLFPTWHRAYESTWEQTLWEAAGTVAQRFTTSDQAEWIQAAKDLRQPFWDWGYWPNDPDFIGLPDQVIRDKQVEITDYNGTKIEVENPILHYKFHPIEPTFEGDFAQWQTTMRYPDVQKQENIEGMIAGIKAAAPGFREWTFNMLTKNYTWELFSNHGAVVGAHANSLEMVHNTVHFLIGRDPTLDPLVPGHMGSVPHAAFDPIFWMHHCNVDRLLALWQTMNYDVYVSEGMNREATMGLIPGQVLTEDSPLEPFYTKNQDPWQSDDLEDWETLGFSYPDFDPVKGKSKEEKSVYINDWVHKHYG

type of inhibition of the monophenolase activity [2]	kcat (catalytic constant) as substrate of tyrosinase [3] [s⁻¹]	Km [3] [mM]	type of inhibition of the diphenolase activity [4]	degree of inhibition of the diphenolase activity (maximum reached) [4] [%]	Compound	pKa [1]
–	–	–	–	–	Cl.Cn1c(=NN)sc2ccccc21.O [MBTH, 3-methyl-2-benzothiazolinone hydrazone hydrochloride hydrate]	5.8 ± 0.4
apparent competitive inhibition	4.43 ± 0.33	6.5 ± 0.58	apparent competitive inhibition	< 100	OC[C@H]1O[C@H](Oc2ccc(O)cc2)[C@H](O)[C@@H](O)[C@@H]1O [α-Arbutin, (2R,3S,4S,5R,6R)-2-(hydroxymethyl)-6-(4-hydroxyphenoxy)oxane-3,4,5-triol]	–
apparent competitive inhibition	3.77 ± 0.29	3 ± 0.19	apparent competitive inhibition	< 100	OC[C@H]1O[C@@H](Oc2ccc(O)cc2)[C@H](O)[C@@H](O)[C@@H]1O [β-Arbutin, (2R,3S,4S,5R,6S)-2-(hydroxymethyl)-6-(4-hydroxyphenoxy)oxane-3,4,5-triol]	–
